Measurements taken from patent US20090023771A1, “PHARMACEUTICAL COMPOSITION COMPRISING A PROTON PUMP INHIBITOR AND PROTEIN COMPONENT” (The Curators of the University of Missouri, priority 2007, published 2009).

Experiment: Degradation of omeprazole (PPI) by stomach acid when combined with buffering agent and/or protein component (FIGS. 1-6)
Assay type: physicochemical
Settings: 40 mg omeprazole with 800 mg aluminum glycinate and 800 mg sodium bicarbonate (20:1 each); FIGS. 5 and 6; compared with sodium bicarbonate and omeprazole alone (FIGS. 3 and 4)
Method: FIG. 2 is a line graph illustrating the degradation of 40 mg omeprazole when it is administered with 800 mg of L-carnosine and 800 mg sodium bicarbonate (20:1 ratio of L-carnosine to omeprazole and sodium bicarbonate to omeprazole). FIG. 4 is a line graph illustrating the degradation of 40 mg omeprazole when it is administered with 1600 mg sodium bicarbonate (40:1 ratio). FIG. 6 is a line graph illustrating the degradation of 40 mg omeprazole when it is administered with 800 mg of aluminum glycinate and 800 mg sodium bicarbonate (20:1 ratio of aluminum glycinate to omeprazole and sodium bicarbonate to omeprazole).

degradation of the omeprazole: immediate degradation
SMILES: COc1ccc2[nH]c([S+]([O-])Cc3ncc(C)c(OC)c3C)nc2c1 (stereo not shown) [omeprazole]
